# Results as given in PMC10112521, “High-throughput AR dimerization assay identifies androgen disrupting chemicals and metabolites” (Frontiers in Toxicology, 2023).
# Where two headings read alike, the source gives them in different places.
# Tests used:
# [1] = system: AR2 cells (HepG2-AR2); experiment: Alamar Blue (resazurin) post hoc cell viability / cytotoxicity assay in AR2 cells; details: spid Viability, sheet antagonist_fits; for hill_tp (Hill model top): 0 where win_model is Constant
# Procedure: (§1) For antagonist mode and cytotoxicity data, well-level normalized response (resp) was calculated as: resp=100 * RLU−bval/pval−bval where pval is the median RLU value of the MEC positive control wells (minimum four wells).
# [2] = molecular target: T1, human AR (Homo sapiens, UniProt P10275); experiment: cell-based; parameters: species or system AR2 cells (HepG2-AR2); NanoLuc complementation AR homodimerization, antagonist mode, loss of agonist-induced luminescence, AC50 by Hill fit; details: hill_ga
# T1 sequence (P10275 1-920) 1: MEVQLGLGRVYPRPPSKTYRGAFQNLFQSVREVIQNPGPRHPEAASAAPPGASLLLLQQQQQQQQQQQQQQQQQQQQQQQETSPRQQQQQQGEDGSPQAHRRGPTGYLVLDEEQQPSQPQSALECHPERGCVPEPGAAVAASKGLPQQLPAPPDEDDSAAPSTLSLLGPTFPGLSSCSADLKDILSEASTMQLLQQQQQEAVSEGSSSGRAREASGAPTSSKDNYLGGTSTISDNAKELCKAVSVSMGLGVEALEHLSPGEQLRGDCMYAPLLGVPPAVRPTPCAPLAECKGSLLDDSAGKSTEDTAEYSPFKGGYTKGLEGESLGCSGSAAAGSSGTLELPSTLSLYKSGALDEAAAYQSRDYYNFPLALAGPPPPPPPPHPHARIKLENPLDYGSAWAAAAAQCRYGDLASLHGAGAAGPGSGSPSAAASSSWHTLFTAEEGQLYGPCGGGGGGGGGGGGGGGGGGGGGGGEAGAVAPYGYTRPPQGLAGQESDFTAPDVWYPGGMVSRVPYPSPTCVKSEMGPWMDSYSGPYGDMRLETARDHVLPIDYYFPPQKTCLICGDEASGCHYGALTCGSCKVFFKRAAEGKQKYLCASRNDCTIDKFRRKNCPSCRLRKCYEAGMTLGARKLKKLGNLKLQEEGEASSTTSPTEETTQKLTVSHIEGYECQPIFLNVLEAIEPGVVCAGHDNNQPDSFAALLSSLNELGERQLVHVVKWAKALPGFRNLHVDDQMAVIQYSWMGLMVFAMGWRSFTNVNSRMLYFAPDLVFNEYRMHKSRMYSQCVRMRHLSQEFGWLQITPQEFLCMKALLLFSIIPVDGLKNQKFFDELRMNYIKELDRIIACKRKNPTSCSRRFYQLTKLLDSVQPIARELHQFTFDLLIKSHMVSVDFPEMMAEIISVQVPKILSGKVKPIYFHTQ
# T1 sequence (P10275 1-920) 2: T1 sequence (P10275 1-920) 1
# [3] = molecular target: T1, human AR; experiment: AR2 assay, antagonist mode: disruption of R1881 (10 nM)-induced AR homodimerization in HepG2-AR2 cells; type: cell-based
# [4] = molecular target: T1, human AR; experiment: AR2 assay, agonist mode: ligand-dependent AR homodimerization (NanoBiT luciferase complementation) in stable HepG2-AR2 cells; type: cell-based; details: for hill_tp: Hill model top (efficacy); for max_med: maximum median response; for win_model: winning concentration-response model (Constant, Hill, Gain-Loss);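 as to hill tp: Log2 fold change of luminescence over DMSO vehicle wells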;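 as to max med: Log2 fold change of luminescence over DMSO vehicle wells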
# [5] = system: AR2 cells (HepG2-AR2)
# Procedure: as §1
# [6] = system: AR; parameters: method as in Kleinstreuer et al., 2017; details: 2017, cited from earlier work; for Antagonist reference: AR antagonist reference class ref Kleinstreuer et al.
# [7] = system: full-length human AR and the receptor interacting domain (RID) of SRC1; parameters: method as in U.S. EPA, 2002b; details: activity call, single protocol detects agonists and antagonists, invitroDBv3.4 ref U.S. EPA, 2002b, cited from earlier work
# [8] = spid=Bgal, antagonist mode, 10 nM agonist stimulus, 18 h, no CYP expressed
# [9] = spid=No_RNA, antagonist mode, 10 nM agonist stimulus, 18 h, no CYP expressed
# [10] = spid AR_antagonist, sheet antagonist_fits
# [11] = spid AR_antagonist, sheet antagonist_fits, 0 where win_model is Constant
# [12] = sheet agonist_fits, 0 given where win_model is Constant
# [13] = spid AR_antagonist, sheet antagonist_fits, Hill fit parameter
Compound,max_med (maximum median response) [1],hill_tp (Hill model top) [1],"max_med (maximum median response) [3, 10]","win_model (winning concentration-response model) [3, 10]","hill_gw (Hill model slope) [3, 11]","hill_tp [4, 12]",max_med ([4]; sheet agonist_fits),win_model ([4]; sheet agonist_fits),hill_ga (Hill model log AC50) [5],other results
"O=[N+]([O-])c1ccc(O)c([N+](=O)[O-])c1 [2,4-Dinitrophenol]",17.6561,19.403,41.2653,Hill,1.229,0,0.06149,Constant,,"AC50 [2, 8]: 61.4 µM; AC50 [2, 9]: 35.8 µM; hill_tp (Hill model top) [3, 11]: 60.4053"
"CC(C)(C)CC(C)(C)c1ccc(O)cc1 [4-(1,1,3,3-Tetramethylbutyl)phenol]",99.7722,100.987,,,,,,,1.5,
CC(C)(c1ccccc1)c1ccc(O)cc1 [4-Cumylphenol],99.676,,,,,,,,1.81,
CC/C(=C(\c1ccc(O)cc1)c1ccc(OCCN(C)C)cc1)c1ccccc1 [Afimoxifene (4-Hydroxytamoxifen)],99.7378,99.9149,104.395,Hill,3.209,0,0.04316,Constant,,"AC50 [2, 8]: 7.28 µM; AC50 [2, 9]: 5.39 µM; hill_tp (Hill model top) [3, 11]: 105.037"
Nc1nc[nH]n1 [Amitrole],20.9539,26.1033,,,,,,,1.008,
O=c1cc(-c2ccc(O)cc2)oc2cc(O)cc(O)c12 [Apigenin],44.3137,57.4844,,,,,,,1.291,
Oc1ccc(C(c2ccc(O)cc2)(C(F)(F)F)C(F)(F)F)cc1 [Bisphenol AF],99.8528,100.2,,,,,,,1.485,
CCC(C)(c1ccc(O)cc1)c1ccc(O)cc1 [Bisphenol B],49.2471,49.223,,,,,,,1.739,
CNC(=O)Oc1cccc2c1OC(C)(C)C2 [Carbofuran],23.3178,15.7111,28.4656,Hill,1.516,0,0.1027,Constant,,"AC50 [2]: 44.2 µM; hill_tp (Hill model top) [3, 11]: 33.2623"
O=c1c(-c2ccc(O)cc2)coc2cc(O)ccc12 [Daidzein],12.142,8.263,67.6764,Hill,1.585,0,0.1579,Constant,,"AC50 [2, 8]: 59.8 µM; AC50 [2, 9]: 46.5 µM; hill_tp (Hill model top) [3, 11]: 87.2882; Agonist reference ([6]; Supplementary Table S1, AR agonist reference class ref Kleinstreuer et al.): Inactive"
CCCCOC(=O)c1ccccc1C(=O)OCCCC [Dibutyl phthalate],27.2383,28.3952,,,,,,,1.084,
N#Cc1c(Cl)cccc1Cl [Dichlobenil],10.2924,0,,,,,,,0,
CCOC(=O)c1ccccc1C(=O)OCC [Diethyl phthalate],22.6345,17.9391,,,,,,,0.07147,
C=C1C[C@@H]2[C@H](CC[C@]3(C)C(=O)CC[C@@H]23)[C@@]2(C)C=CC(=O)C=C12 [Exemestane],,,,,,,,,,"hill_tp (Hill model top) [5]: 0; max_med (maximum median response) ([5]; spid Viability, sheet antagonist_fits): 7.414"
O=c1c(-c2ccc(O)cc2)coc2cc(O)cc(O)c12 [Genistein],23.3224,24.3043,,Hill,2.066,0,0.108,Constant,,"AC50 [2, 8]: 9.34 µM; AC50 [2, 9]: 9.32 µM; hill_tp (Hill model top) [3]: 100.659; max_med (maximum median response) [3]: 101.398"
CC(C)(O)C(=O)Nc1ccc([N+](=O)[O-])c(C(F)(F)F)c1 [Hydroxyflutamide],16.5535,15.0961,26.302,Hill,8,5.723,5.832,Hill,,"activity call in antagonist mode ([3]; 128-chemical evaluation, 18 h, active = maximal median response >3*bmad and AC50 at least 0.5 log units below cytotoxicity AC50): tested inactive; AR2 antagonist ([3]; activity call, antagonist mode, 18 h): 0; Emax ([3]; read-out: antagonist response / maximum efficacy (% inhibition)): > 90%; hill_tp (Hill model top) [3, 11]: 19.7734; activity call in agonist mode ([4]; 128-chemical evaluation, 18 h, active = maximal median response >5*bmad): tested active; hill_gw ([4]; sheet agonist_fits, Hill model gain slope (Hill coefficient), 0 given where win_model is Constant): 0.8082; Antagonist reference [6]: Strong; Antagonist reference ([6]; Supplementary Table S1): Strong; OT 8 hr ([7]; 8 h): 1; OT 16 hr ([7]; 16 h): 1"
COP(=O)(OC)O/C(=C\Cl)c1cc(Cl)c(Cl)cc1Cl [Z-Tetrachlorvinphos],16.5553,,94.4561,,,0,0.08626,Constant,,"hill_tp (Hill model top of curve) ([1]; Hill fit parameter): 16.4592; AC50 [2, 8]: 28.8 µM; AC50 [2, 9]: 28.9 µM; win_model (winning curve-fit model) ([3]; spid AR_antagonist, sheet antagonist_fits, Constant = no concentration response): Hill; hill_gw (Hill model slope/Hill coefficient) [3, 13]: 1.437; hill_tp (Hill model top of curve) [3, 13]: 113.966"
"Clc1ccc(C(c2ccc(Cl)cc2)C(Cl)Cl)cc1 [p,p'-DDD]",,,,,,,,,1.74,"hill_tp (Hill model top of curve) ([5]; human, 18 h): 93.5622; max_med (maximum median response) ([5]; human, 18 h): 93.2611"
